# Laboratory results taken from ChEMBL document CHEMBL5512637, “Development of Membrane-Targeting Fluorescent 2-Phenyl-1H-phenanthro[9,10-d]imidazole-Antimicrobial Peptide Mimic Conjugates against Methicillin-Resistant Staphylococcus aureus” (J Med Chem, 2024).
# The source made the active and inactive calls. The calls are words filed in the database; no cut-off is given here.
# Columns and labels:
# Escherichia coli = assay: Antibacterial activity against Escherichia coli ATCC 25922 incubated for 16 to 18 hrs CLSI based by microbroth dilution assay; format: functional; settings: time 16-18 hrs
# Staphylococcus aureus [1] = assay: Bactericidal activity against Staphylococcus aureus ATCC 29213 at 4 to 8 times MIC by time kill assay; format: functional, organism-based; settings: TDE = time-dependent effect
# Staphylococcus aureus [2] = assay: Antibacterial activity against methicillin-resistant Staphylococcus aureus clinical isolate M-4 upto 128 ug/ml incubated for 16 to 18 hrs in presence of phosphatidylethanolamine by broth dilution method; format: functional, organism-based; settings: dose <= 128.0 µg/ml, time 16-18 hrs
# [3] = Toxicity in KM mouse assessed as histological abnormality in liver at 20 mg/kg, sc measured after 24 hrs by H and E staining based analysis; format: organism-based; settings: in vivo
# Staphylococcus aureus [4] = assay: Disruption of cell membrane in methicillin-resistant Staphylococcus aureus clinical isolate M-4 assessed as decrease in blue fluorescence at 4 ug/ml incubated for 4 hrs by DAPI/PI staining based laser confocal microscopy; format: functional, organism-based; settings: dose 4.0 µg/ml
# Staphylococcus aureus [5] = assay: Disruption of cell membrane in methicillin-resistant Staphylococcus aureus clinical isolate M-4 assessed as rough cell membrane at 8 times MIC incubated for 1 hr by SEM analysis; format: functional, organism-based
# Staphylococcus aureus [6] = assay: Antibacterial activity against methicillin-resistant Staphylococcus aureus clinical isolate M-4 infected in KM mouse assessed as reduction in skin inflammation at 10 mg/kg, sc measured after 24 hrs by H and E staining based analysis; format: functional, organism-based
# Staphylococcus aureus [7] = assay: Bactericidal activity against methicillin-resistant Staphylococcus aureus clinical isolate M-4 at 8 times MIC incubated for 4 hrs by time kill assay relative to control; format: functional
# Staphylococcus aureus [8] = assay: Antibacterial activity against methicillin-resistant Staphylococcus aureus clinical isolate M-6 incubated for 16 to 18 hrs CLSI based by microbroth dilution assay; format: functional; settings: time 16-18 hrs
# Staphylococcus aureus [9] = assay: Antibacterial activity against methicillin-resistant Staphylococcus aureus clinical isolate M-4 upto 128 ug/ml incubated for 16 to 18 hrs in presence of phosphatidylglycerol by broth dilution method; format: functional, organism-based; settings: dose <= 128.0 µg/ml, time 16-18 hrs
# Staphylococcus aureus [10] = assay: Antibacterial activity against methicillin-resistant Staphylococcus aureus clinical isolate M-3 incubated for 16 to 18 hrs CLSI based by microbroth dilution assay; format: functional; settings: time 16-18 hrs
# [11] = Toxicity in KM mouse assessed as histological abnormality in heart at 20 mg/kg, sc measured after 24 hrs by H and E staining based analysis; format: organism-based; settings: in vivo
# [12] = Toxicity in KM mouse assessed as change in platelet count at 20 mg/kg, sc measured after 24 hrs; format: organism-based; settings: in vivo
# Staphylococcus aureus [13] = assay: Antibacterial activity against methicillin-resistant Staphylococcus aureus clinical isolate M-5 incubated for 16 to 18 hrs CLSI based by microbroth dilution assay; format: functional; settings: time 16-18 hrs
# Staphylococcus aureus [14] = assay: Antibacterial activity against methicillin-resistant Staphylococcus aureus clinical isolate M-4 upto 128 ug/ml incubated for 16 to 18 hrs in presence of cardiolipin by broth dilution method; format: functional, organism-based; settings: dose <= 128.0 µg/ml, time 16-18 hrs
# [15] = Toxicity in KM mouse infected with methicillin-resistant Staphylococcus aureus clinical isolate M-4 assessed as histopathological abnormality in spleen at 5 to 10 mg/kg, sc measured after 24 hrs by H and E staining based analysis; format: organism-based; settings: in vivo, dose 5-10 mg/kg
# Staphylococcus aureus [16] = assay: Disruption of cell membrane in methicillin-resistant Staphylococcus aureus clinical isolate M-4 assessed as cell membrane rupture at 8 times MIC incubated for 1 hr by SEM analysis; format: functional, organism-based
# Staphylococcus aureus [17] = assay: Disruption of cell membrane in methicillin-resistant Staphylococcus aureus clinical isolate M-4 assessed as DNA leakage at 1 to 8 times MIC incubated for 4 hrs by microspectrophotometry; format: functional, organism-based
# Staphylococcus aureus [18] = assay: Induction of resistance development in Staphylococcus aureus ATCC 29213 assessed as fold increase in MIC at MIC measured after 17 passages relative to control; format: functional
# [19] = Toxicity in KM mouse assessed as animal abnormality at 5 to 80 mg/kg, sc measured for 24 hrs; format: organism-based; settings: in vivo, dose 5-80 mg/kg
# Staphylococcus aureus [20] = assay: Disruption of cell membrane in methicillin-resistant Staphylococcus aureus clinical isolate M-4 assessed as wrinkled cell membrane at 8 times MIC incubated for 1 hr by SEM analysis; format: functional, organism-based
# Staphylococcus aureus [21] = assay: Disruption of cell membrane in methicillin-resistant Staphylococcus aureus clinical isolate M-4 assessed as fold increase in intracellular ROS level at 32 ug/ml incubated for 1 hr by DCFH-DA dye based analysis relative to control; format: functional; settings: dose 32 µg/ml
# [22] = Toxicity in KM mouse assessed as histological abnormality in lungs at 20 mg/kg, sc measured after 24 hrs by H and E staining based analysis; format: organism-based; settings: in vivo
# [23] = Toxicity in KM mouse assessed as change in mental health at 5 to 80 mg/kg, sc measured for 24 hrs; format: organism-based; settings: in vivo, dose 5-80 mg/kg
# [24] = Toxicity in KM mouse assessed as change in albumin level at 20 mg/kg, sc measured after 24 hrs; format: organism-based; settings: in vivo
# Staphylococcus aureus [25] = assay: Disruption of cell membrane in methicillin-resistant Staphylococcus aureus clinical isolate M-4 assessed as increase in red fluorescence incubated for 2 hrs by SYTO9/PI staining based flow cytometry; format: functional, organism-based; settings: dose 4-64 µg/ml
# Staphylococcus aureus [26] = assay: Bactericidal activity against methicillin-resistant Staphylococcus aureus clinical isolate M-4 by time kill assay; format: functional, organism-based
# [27] = Toxicity in KM mouse infected with methicillin-resistant Staphylococcus aureus clinical isolate M-4 assessed as histopathological abnormality in kidneys at 5 to 10 mg/kg, sc measured after 24 hrs by H and E staining based analysis; format: organism-based; settings: in vivo, dose 5-10 mg/kg
# Staphylococcus aureus [28] = assay: Antibacterial activity against methicillin-resistant Staphylococcus aureus clinical isolate M-10 incubated for 16 to 18 hrs CLSI based by microbroth dilution assay; format: functional; settings: time 16-18 hrs
# Staphylococcus aureus [29] = assay: Antibacterial activity against methicillin-resistant Staphylococcus aureus clinical isolate M-4 infected in KM mouse assessed as decrease in abscesses in subcutaneous tissue at 5 to 10 mg/kg, sc measured after 24 hrs by H and E staining based analysis; format: functional, organism-based; settings: dose 5-10 mg/kg
# Staphylococcus aureus [30] = assay: Disruption of cell membrane in methicillin-resistant Staphylococcus aureus clinical isolate M-4 assessed as increase in fluorescence intensity measured for 30 mins by DiSC3(5) dye based analysis; format: functional, organism-based; settings: dose 8-32 µg/ml
# [31] = Toxicity in KM mouse assessed as change in mean corpuscular volume at 20 mg/kg, sc measured after 24 hrs; format: organism-based; settings: in vivo
# [32] = Toxicity in KM mouse assessed as change in creatinine level at 20 mg/kg, sc measured after 24 hrs; format: organism-based; settings: in vivo
# Staphylococcus aureus [33] = assay: Antibacterial activity against methicillin-resistant Staphylococcus aureus clinical isolate M-4 infected in KM mouse assessed as survival rate of bacteria at 5 mg/kg, sc measured after 24 hrs relative to control; format: functional
# [34] = Toxicity in KM mouse assessed as change in WBC count at 20 mg/kg, sc measured after 24 hrs; format: organism-based; settings: in vivo
# [35] = Toxicity in KM mouse infected with methicillin-resistant Staphylococcus aureus clinical isolate M-4 assessed as histopathological abnormality in lungs at 5 to 10 mg/kg, sc measured after 24 hrs by H and E staining based analysis; format: organism-based; settings: in vivo, dose 5-10 mg/kg
# Staphylococcus aureus [36] = assay: Induction of resistance development in Staphylococcus aureus ATCC 29213 at MIC measured after 20 passages; format: functional
# [37] = Toxicity in KM mouse infected with methicillin-resistant Staphylococcus aureus clinical isolate M-4 assessed as histopathological abnormality in heart at 5 to 10 mg/kg, sc measured after 24 hrs by H and E staining based analysis; format: organism-based; settings: in vivo, dose 5-10 mg/kg
structure (smiles),measurement,setting,value
CCCCCNC(=O)C[N+](C)(C)CCCCn1c(-c2ccc(N(C)C)cc2)nc2c3ccccc3c3ccccc3c21.[Br-],MIC,Escherichia coli,32 µg/mL
same,Activity,Staphylococcus aureus [1],Tde
same,Activity,Staphylococcus aureus [2],Active
same,Activity,[3],Non-Toxic
same,Activity,Staphylococcus aureus [4],Active
same,Activity,Staphylococcus aureus [5],Active
same,Activity,Staphylococcus aureus [6],Active
same,Activity,Staphylococcus aureus [7],100%
same,MIC,Staphylococcus aureus [8],0.5 µg/mL
same,Activity,Staphylococcus aureus [9],inactive
same,MIC,Staphylococcus aureus [10],1 µg/mL
same,Activity,[11],Non-Toxic
same,Activity,[12],Non-Toxic
same,MIC,Staphylococcus aureus [13],2 µg/mL
same,Activity,Staphylococcus aureus [14],Active
same,Activity,[15],Non-Toxic
same,Activity,Staphylococcus aureus [16],Active
same,Activity,Staphylococcus aureus [17],Active
same,fold change (FC),Staphylococcus aureus [18],128
same,Activity,[19],Non-Toxic
same,Activity,Staphylococcus aureus [20],Active
same,fold change (FC),Staphylococcus aureus [21],~3
same,Activity,[22],Non-Toxic
same,Activity,[23],Non-Toxic
same,Activity,[24],Non-Toxic
same,Activity,Staphylococcus aureus [25],Dose-Dependent Effect
same,Activity,Staphylococcus aureus [26],Dose-Dependent Effect
same,Activity,[27],Non-Toxic
same,MIC,Staphylococcus aureus [28],1 µg/mL
same,Activity,Staphylococcus aureus [29],Active
same,Activity,Staphylococcus aureus [30],Dose-Dependent Effect
same,Activity,[31],Non-Toxic
same,Activity,[32],Non-Toxic
same,survival at 5 mg/kg,Staphylococcus aureus [33],0.42%
same,Activity,[34],Non-Toxic
same,Activity,[35],Non-Toxic
same,Activity,Staphylococcus aureus [36],inactive
same,Activity,[37],Non-Toxic
